Experimental data reported in PMC6021502, “Cannabigerol Action at Cannabinoid CB1 and CB2 Receptors and at CB1–CB2 Heteroreceptor Complexes” (Frontiers in Pharmacology, 2018).

Experiments:
SNAP-CB2R [1] = biological target: T1, SNAP-CB2R (Homo sapiens, UniProt P34972); set-up: method as in Martínez-Pinilla et al., 2016; conditions: HTRF binding to CB2R; ref Martínez-Pinilla et al., 2016; read-out: KD used in the Cheng and Prusoff equation for homogeneous binding; cited from earlier work
T1 construct: host or cells: HEK-293T, transient transfection (PEI)

[2] = biological target: T2, CB2R in a CB1–CB2 receptor heteromer context (Homo sapiens, UniProt P34972); assay: Homogeneous HTRF competition binding in living HEK-293T cells expressing SNAP-CB2R and CB1R; conditions: 20 nM fluorescent ligand, read-out: Ki, HTRF competition of fluorophore-conjugated CM-157 in the presence of CB1R
T2 construct: host or cells: HEK-293T, transient co-transfection (PEI)

SNAP-CB2R [3] = biological target: T1, SNAP-CB2R; assay: Homogeneous HTRF competition binding in living HEK-293T cells (fluorophore-conjugated CM-157); conditions: living HEK-293T cells expressing SNAP-CB2R, 20 nM fluorescent ligand

T1 sequence (P34972 whole entry): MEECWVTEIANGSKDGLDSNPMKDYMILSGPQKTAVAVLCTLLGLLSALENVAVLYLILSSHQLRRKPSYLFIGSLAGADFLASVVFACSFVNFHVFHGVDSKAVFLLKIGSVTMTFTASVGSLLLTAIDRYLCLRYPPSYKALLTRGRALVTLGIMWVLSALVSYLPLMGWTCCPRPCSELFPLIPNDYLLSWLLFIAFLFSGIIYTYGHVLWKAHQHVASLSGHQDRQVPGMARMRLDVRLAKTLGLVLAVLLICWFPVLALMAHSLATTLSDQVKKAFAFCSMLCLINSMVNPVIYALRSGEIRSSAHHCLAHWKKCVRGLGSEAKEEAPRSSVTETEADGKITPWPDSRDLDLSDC
T2 sequence (P34972 whole entry): as above
T2 sequence (P21554 whole entry partner): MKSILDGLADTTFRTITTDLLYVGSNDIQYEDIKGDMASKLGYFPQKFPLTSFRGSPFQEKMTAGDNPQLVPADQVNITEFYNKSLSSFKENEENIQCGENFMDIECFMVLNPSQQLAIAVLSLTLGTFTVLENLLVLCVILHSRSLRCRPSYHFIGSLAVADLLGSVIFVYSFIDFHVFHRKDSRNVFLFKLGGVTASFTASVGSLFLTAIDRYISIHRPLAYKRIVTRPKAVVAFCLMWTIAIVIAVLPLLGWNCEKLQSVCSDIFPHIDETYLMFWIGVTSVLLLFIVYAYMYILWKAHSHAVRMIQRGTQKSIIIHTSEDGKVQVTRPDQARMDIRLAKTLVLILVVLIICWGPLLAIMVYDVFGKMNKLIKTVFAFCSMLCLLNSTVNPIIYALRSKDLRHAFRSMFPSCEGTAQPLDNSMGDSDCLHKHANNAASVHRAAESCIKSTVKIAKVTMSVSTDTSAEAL

## CC(C)(C)c1nc2cc(S(=O)(=O)c3ccnc(OCCCN)c3)ccc2n1CC1CCOCC1 [CM-157, 3-[[4-[2-tert-butyl-1-(tetrahydropyran-4-ylmethyl)benzimidazol-5-yl]sulfonyl-2-pyridyl]oxy]propan-1-amine, reference compound]
SNAP-CB2R [1]
  Kd: 21 nM
[2]
  Ki: 19 nM
SNAP-CB2R [3]
  Ki: 16 nM
